The experiment concerns the target T1, Ceramide glucosyltransferase (Homo sapiens, UniProt Q16739).
T1 sequence (Q16739 whole entry): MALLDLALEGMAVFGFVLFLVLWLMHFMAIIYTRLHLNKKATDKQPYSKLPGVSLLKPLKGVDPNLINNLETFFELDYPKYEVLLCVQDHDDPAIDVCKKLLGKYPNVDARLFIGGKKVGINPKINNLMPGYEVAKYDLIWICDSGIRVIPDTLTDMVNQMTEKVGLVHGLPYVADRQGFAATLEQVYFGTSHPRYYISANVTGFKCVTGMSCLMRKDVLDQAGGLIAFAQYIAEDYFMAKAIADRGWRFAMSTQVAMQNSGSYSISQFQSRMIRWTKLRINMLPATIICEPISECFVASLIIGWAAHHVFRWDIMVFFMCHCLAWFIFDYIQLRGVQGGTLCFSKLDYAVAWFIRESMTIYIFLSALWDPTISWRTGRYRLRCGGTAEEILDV
Description: UDP-Glo Glucosylceramide Synthase Biochemical Assay. Here is the method:
Using Promega's UDP-Glo™ Glycosyltransferase assay kit (Promega Corporation, Madison, WI, USA (Promega)), GCS activity was indirectly measured by detecting the amount of UDP produced. An aliquot of GCS enzyme (1.5 μg crude golgi preparation, total protein) and titrated test compound were aliquoted to each well and incubated for 30 minutes at room temperature. […] An equivalent volume of substrate mixture was then added to each well. Following a 20 h incubation at room temperature to allow for GCS turnover of substrate, an equal volume of UDP detection reagent (Promega) was added to each well and incubated for an additional 75 minutes at room temperature to simultaneously convert the accumulated UDP product into ATP and generate light in a luciferase reaction.

Regarding `CN1C(=O)CC(COc2nc(C3CC3)ncc2C#N)C1c1cccc(Cl)c1` (stereo unspecified) [US20250188057, Compound 101], it took 3.15 µM to reach half-maximal inhibition (IC50).

These data come from BindingDB's records for patent US20250188057 (Merck Sharp & Dohme, 2025).
